In patent US6951883B2, “2H-1-benzopyran derivatives processes for their preparation and pharmaceutical compositions thereof” (Chiesi Farmaceutici S.p.A., priority 2001, dated 2005):
One block for each compound: values may come before it.

Key:
[1] = test system: MCF-7; experiment: cells; settings: for concentration of total growth inhibition: 72-hours incubation; for IC50: read-out: Inhibitory Concentration IC50
Procedure: In Vitro Study—MCF-7 Cell Proliferation
The tumor cells were obtained from American Type Culture Collection (ATCC HTB-22). The culture media used was Minimum Essential medium with 10% fetal bovine serum, and media were supplemented with 1% antibiotic-antimycotic. Aliquots of 100 μl of cell suspension (5×10^3/well) were placed in 96-well microtiter plates in an atmosphere of 5% CO2 at 37° C. After 24 hours, 100 μl of growth medium, 2 μl of test solution, mitomycin or vehicle (DMSO, final concentration 0.4%), was added respectively per well in duplicate for an additional 72-hours incubation. At the end of incubation, 20 μl of alamarBlue 75% reagent was added to each well for another 6-hour incubation before detection of cell viability by fluorescent intensity (excitation at 530 nm and emission at 590 nm).

[2] = test system: immature female rats (E2-stimulated uterus); experiment: Immature female rat assay, antiuterotrophic activity; type: in vivo
Description: (§1) In Vivo Studies—Immature Female Rat Assay.
Antiuterotrophic Activity
(§2) Experiments have been conducted as described in Eppenberger U et al, Am J Clin Oncol 14 (suppl. 2), S5-S14, 1991.
This concentration of E2 was the lowest producing near-maximal effect and was chosen on the basis of preliminary dose-response experiments.

[3] = test system: immature female rats (uterine weight); experiment: Immature female rat assay, uterotrophic activity; type: in vivo; settings: for uterine weights versus control rats: 0.01, 0.1, 1 and 10 mg/kg·day; for increase of uterine weight compared with vehicle treated control rats: 0.1 mg/kg/day; for uterine weight versus control rats: 0.01, 1 and 10 mg/kg/day
Description: as §1, §2

[4] = test system: OVX rats; experiment: Four-week OVX rat assay, serum cholesterol levels; type: in vivo; settings: for lowering of serum cholesterol levels, comparison in words: with respect to controls, compared with E2 / Compound II
Procedure: (§3) The experiments have been conducted according to Kaln D N, Bone Mineral 15, 175-192, 1991 and Grese T A et al J Med Chem 40, 146-167, 1997.
(§4) The effects of the tested compounds were evaluated also in 9-11-month-old OVX rats that were dosed for 4 weeks post-surgery and compared with OVX and Sham controls.
(§5) Tissue-specific estrogen agonist effects were examined utilizing uterine weight, uterine histology, uterine eosinophil peroxidase activity (EPO), bone mineral density (BMD), and serum cholesterol levels as end points.
Effect on Serum Cholesterol Levels

[5] = test system: OVX rats; experiment: Four-week OVX rat assay, uterine effects (weight, eosinophil peroxidase, histology); settings: in vivo
Procedure: as §3, §4, §5
The degree of eosinophilic peroxidase induction of the uterus may be a useful marker for estrogen-effected growth responses (Lyttle C R and DeSombre E R Proc Natl Acad Sci USA 74, 3162-3166, 1977).

[6] = Solubility in water; type: physicochemical; settings: r.t.
[7] = target: T1, human ER-α (Homo sapiens, UniProt P03372); experiment: Human estrogen receptor-α binding
T1 sequence (P03372 1-595): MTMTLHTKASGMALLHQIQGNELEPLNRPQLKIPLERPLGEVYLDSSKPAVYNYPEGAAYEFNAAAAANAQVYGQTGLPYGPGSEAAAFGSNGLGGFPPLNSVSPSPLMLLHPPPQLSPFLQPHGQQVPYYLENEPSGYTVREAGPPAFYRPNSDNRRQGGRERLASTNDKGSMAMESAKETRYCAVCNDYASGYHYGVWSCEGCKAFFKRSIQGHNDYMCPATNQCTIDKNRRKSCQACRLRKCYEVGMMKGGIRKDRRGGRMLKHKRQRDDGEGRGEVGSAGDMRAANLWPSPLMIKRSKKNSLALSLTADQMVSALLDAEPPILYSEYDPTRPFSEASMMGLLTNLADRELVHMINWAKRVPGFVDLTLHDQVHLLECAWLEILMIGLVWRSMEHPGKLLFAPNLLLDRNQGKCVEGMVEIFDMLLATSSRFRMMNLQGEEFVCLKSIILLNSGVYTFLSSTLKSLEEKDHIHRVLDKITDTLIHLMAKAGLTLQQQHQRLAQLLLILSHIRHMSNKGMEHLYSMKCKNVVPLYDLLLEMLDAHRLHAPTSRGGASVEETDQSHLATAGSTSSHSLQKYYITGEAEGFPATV
Description: (§6) In Vitro Study—Human Estrogen Receptor-α and -β (ER-α and ER-β)

[8] = target: human ER-β (Homo sapiens, UniProt Q92731); experiment: Human estrogen receptor-β binding; settings: for affinity for ER-β higher than raloxifene: compared with raloxifene
Description: as §6

[9] = test system: OVX rats; experiment: Four-week OVX rat assay, bone mineral density (lumbar spine L1-4) by DEXA; type: in vivo; settings: 4 weeks
Procedure: Effects in the Ovariectomized (OVX) Rat Model
as §3, §4, §5
Effect on Bone Mineral Density (BMD) (Lumbar Spine L1-4)
Bone mineral density (BMD) was measured by DEXA (Dual Energy XRay Absorptiometry) using a Hologic QDR-1000 plus instrument equipped with dedicated software for small animal measurements. An ultrahigh-resolution mode (line spacing 0.0254 cm and resolution 0.0127 cm) was used with a collimator of 0.63 mm diameter. This technique provides an integrated measure of both cortical and trabecular bone.
In vivo DEXA measurements were carried out immediately before surgery (baseline scan) and 4 weeks after surgery. The anatomic region examined was the lumbar spine L1-4.
All animals were anesthetized before scanning with a mixture of ketamine and p-promazine. For each scan a rat was placed in a supine position with the spine parallel to the long axis of the densitometer table. The lumbar spine was scanned using the pelvic bones as landmark; analysis of this site was accomplished by dividing vertebra and intervertebral spaces with subregional high resolution software and including only target vertebra in the global region of interest.
Percent protection was calculated by the following formula: % protection=[(% chance BMDtest compound−% chance BMDOVX control)/(% chance BMDsham control−% chance BMDOVX control)]×100.

[10] = oral, E2 0.05 mg/kg per os for 3 days

Sequence of human ER-β (Q92731 whole entry): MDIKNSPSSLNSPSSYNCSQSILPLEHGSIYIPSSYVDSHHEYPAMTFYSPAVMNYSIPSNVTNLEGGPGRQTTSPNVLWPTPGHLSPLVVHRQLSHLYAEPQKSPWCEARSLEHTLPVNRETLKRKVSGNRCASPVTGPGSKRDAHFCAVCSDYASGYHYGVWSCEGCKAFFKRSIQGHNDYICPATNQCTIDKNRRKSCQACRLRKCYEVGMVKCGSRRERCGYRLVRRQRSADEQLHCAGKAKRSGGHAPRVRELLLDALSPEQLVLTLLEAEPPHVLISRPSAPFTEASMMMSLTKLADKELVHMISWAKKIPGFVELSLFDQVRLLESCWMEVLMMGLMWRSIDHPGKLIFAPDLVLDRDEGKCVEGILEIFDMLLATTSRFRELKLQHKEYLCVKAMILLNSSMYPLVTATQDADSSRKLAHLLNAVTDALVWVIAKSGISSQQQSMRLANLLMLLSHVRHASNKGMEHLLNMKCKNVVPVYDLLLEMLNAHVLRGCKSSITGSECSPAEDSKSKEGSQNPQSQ

Compound: CC/C(=C(\c1ccccc1)c1ccc(OCCN(C)C)cc1)c1ccccc1 [tamoxifene]
concentration of total growth inhibition [1]: 11 µM

Compound: COc1ccc2c(c1)OC(C)(C)[C@@H](c1ccccc1)[C@@H]2c1ccc(OCCN2CCCC2)cc1 [levormeloxifene]
inhibition of E2 stimulation of the uterus ([2]; at 1 mg/kg/day, partial antagonism): 40-45%
uterine weights versus control rats [3]: significantly increased
maximal agonist activity, % that of E2 ([3]; at 1 mg/kg): 60-65%
lowering of serum cholesterol levels, comparison in words [4]: significantly less potent
eosinophilic peroxidase activity compared to OVX uteri [5]: significantly increased
uterine epithelia / endometrium histology [5]: full disappearance of epithelium atrophy

Compound: CS(=O)(=O)O.Oc1ccc2c(c1)OCC(c1ccccc1)=C2Cc1ccc(OCCN2CCCCC2)cc1 [Example 43, 3-phenyl-4-(4-(2-(N-piperidinyl)ethoxy)benzyl)-7-hydroxychrom-3-ene methansulfonate (1:1)]
solubility [6]: > 1000 µg/mL

Compound: Oc1ccc2c(c1)OCC(c1ccccc1)=C2Cc1ccc(OCCN2CCCCC2)cc1 [Compound I, 3-phenyl-4-(4-(2-(N-piperidinyl)ethoxy)benzyl)-7-hydroxychrom-3-ene]
Ki [7]: 0.041 ± 0.011 nM
Ki [8]: 0.157 ± 0.028 nM
affinity for ER-β higher than raloxifene [8]: 10 fold
dose at which total antagonism of E2 uterotrophic action was observed ([2]; oral): 1 to 10 mg/kg/day
EC50, inhibition of the uterotrophic action of E2 [2, 10]: 0.33 mg/kg·day
increase of uterine weight compared with vehicle treated control rats [3]: 17%
uterine weight versus control rats [3]: not significantly different from control rats
% protection of BMD ([9]; first experiment, 10 mg/kg/day): 47%
maximal lowering of cholesterol, inhibition relative to the OVX control ([4]; 10 mg/kg): 67%
ED50 ([4]; Rattus norvegicus, 672 h, 0.1-10 mg/kg day, 4 weeks, read-out: ED50, decrease of total serum cholesterol (half maximal efficacy)): 0.12 mg/kg
concentration of total growth inhibition [1]: 11 µM
CC50 ([1]; Homo sapiens, MCF7, 72 h, read-out: 50% lethal concentrations (LC50)): 20 µM
IC50 ([1]; Homo sapiens, MCF7, 72 h): 6.5 µM

Compound: O=C(c1ccc(OCCN2CCCCC2)cc1)c1c(-c2ccc(O)cc2)sc2cc(O)ccc12 [raloxifene]
ED50 = dose required to produce 50% reduction in estradiol-stimulated growth [2, 10]: 0.39 mg/kg·day
increase of uterine weight compared with vehicle treated control rats [3]: 32%
uterine weights versus control rats [3]: not significantly different from control rats
uterine weight versus control rats [3]: not significantly different from control rats
lowering of serum cholesterol levels, comparison in words [4]: significantly less potent
concentration of total growth inhibition [1]: 18 µM
IC50 ([1]; Homo sapiens, MCF7, 72 h): 11 µM

Compound: 17α-ethynil estradiol [reference compound]
increase of uterine wet weight compared with vehicle-treated controls ([2]; 0.05 mg/kg per os for 3 days): 170-220%
% protection of BMD ([9]; first experiment, 0.1 mg/kg): ~50%
% protection of BMD ([9]; second experiment, 0.1 mg/kg): ~95%
uterine epithelia / endometrium histology [5]: full disappearance of epithelium atrophy

Ki [7]: 0.017 ± 0.002 nM
Ki [8]: 0.099 ± 0.005 nM
affinity for ER-β higher than raloxifene [8]: 16 fold
Compound: COc1ccc(C2=C(Cc3ccc(OCCN4CCCCC4)cc3)c3ccc(O)cc3OC2)cc1.Cl [Compound II, 3-(4-methoxy)phenyl-4-[[4-[2-(1-piperidinyl)ethoxyl]phenyl]methyl]-2H-1-benzopyran-7-ol hydrochloride]
dose at which total antagonism of E2 uterotrophic action was observed ([2]; oral): 0.1-1 mg/kg·day
ED50 = dose required to produce 50% reduction in estradiol-stimulated growth [2, 10]: 0.016 mg/kg·day
uterine weights versus control rats [3]: not significantly different from control rats
% protection of BMD ([9]; second experiment, 0.1 mg/kg): 60%
% protection of BMD ([9]; second experiment, 1 mg/kg·day): 119%
decrease of total serum cholesterol, inhibition ([4]; 0.1 mg/kg·day): 75%
decrease of total serum cholesterol, inhibition ([4]; 1 mg/kg·day): 81%
lowering of serum cholesterol levels, comparison in words [4]: as efficacious as E2
